Test results as given in ChEMBL document CHEMBL1127660, “Isolation, structural determination, and biological activity of 6 alpha-hydroxytaxol, the principal human metabolite of taxol” (J Med Chem, 1994).
pIC50: −log10 of the molar value.

Legend:
MOLT-4 = assay: The compound was tested for inhibition concentration against MOLT-4 cell line; format: functional, cell-based; settings: Homo sapiens
U-937 = assay: The compound was tested for inhibition concentration against U-937 cell line; format: functional, cell-based; settings: Homo sapiens

pIC50 (MOLT-4): 8.80
pIC50 (U-937): 9.00
SMILES: CC(=O)O[C@H]1C(=O)[C@@]2(C)[C@H]([C@H](OC(=O)c3ccccc3)[C@]3(O)C[C@H](OC(=O)[C@H](O)[C@@H](NC(=O)c4ccccc4)c4ccccc4)C(C)=C1C3(C)C)[C@]1(OC(C)=O)CO[C@@H]1C[C@@H]2O [PACLITAXEL]
